This is an account of results in US20060148829A1, “Means for inducing differentiation of supernumerary hair cells and deiters' cells in the developing organ of corti” (priority 2002, published 2006).

Starred links: 1 amine or outer side, 2 acyl side, 3 side chain; linkers in the order of their positions; H or OH if unused. Positions of bridges follow the written chain, without caps; N, C: chain ends. Non-standard residues stand in square brackets, D forms with d. Residues, ends and D or L forms follow the SMILES beside them. Chains are numbered I, II in the order given. Actinocin(9to1) = Cc1c2oc3c(C)ccc(C(=O)[*:1])c3nc-2c(C(=O)[*:2])c(N)c1=O; NMeV = CN[C@H](C(=O)O)C(C)C; Sar = CNCC(=O)O

In data set [1] the test system is rat organ of Corti explants. The data set can be described thus: Induction of supernumerary hair cells (HCs) in cultured organ of Corti explants. Particulars: for Induction of supernumerary HCs (in words): E19 rat organ of Corti explants, 5 days in culture; for Concentration inducing maximum supernumerary HCs differentiation: isolated organs of Corti, lowest concentration inducing maximum effect, for inactive compounds highest concentration tested 100 :M. The source says: Time-pregnant Sprague-Dawley rats or neonates were killed by euthanasia on gestational days 17 (E17), E19, or on postnatal days 0 (day of birth=P0), P2 and P4 with CO2. Both cochleae were dissected free from the calvaria with watchmaker forceps and under a stereomicroscope. Each organ of Corti was freed from surrounding tissues and explanted intact onto the surface of a sterile membrane (Mllicellm, 12 mm, Millipore, Bedford, Mass., USA) in minimum essential medium (MEM; Gibco, Gent, Belgium) into a 24-well culture plate (Nunc). Cultures were incubated at 37° C. in a humidified atmosphere of 95% air and 5% CO2. Medium was renewed every 2 days.
Organs of Corti were dissected from E19 rats and maintained in culture. […] For each condition, the explants were fixed and the supernumerary zones were counted after myosin VIIa immunostaining.
Quantitative analysis of supernumerary HCs production was obtained by counting the number of HCs per length and surface of sensory epithelium regions from the medium turn as previously described (5). If supernumerary cells were actually produced, the number of cells per unit of length should increase while the number of cells per surface unit should remain at the same level. […] The total length of each organ of Corti explant was measured and the extent of the region with supernumerary HCs was expressed as percent of total length. These supernumerary regions were defined by the presence of more than four rows of HCs.

Data set [2] relates to CDK1/cyclin B. Particulars: Knockaert et al, 2002b; cited from earlier work.
In data set [3] the test system is E19 rat organ of Corti explants. Description: TUNEL labelling of apoptosis in organ of Corti explants. The data set is classed as cell-based. Particulars: 10 :M, after 1, 2 or 5 DIV. The source says:
The apoptosis in E19 rat organ of Corti explants was looked for by staining the specimens cultured for 1, 2 or 5DIV with the terminal deoxynudeotidyl transferase-mediated dUTP nick-end labelling (TUNEL) method using the ApopTag fluorescent detection kit (Oncor, Gaitherburg, Md.) as previously described (6).

Data set [4] is described as follows: Administration to patients suffering of deafness. The data set is classed as in vivo. Particulars: regularly administered.
For data set [5], the system named is E19 explants of organ of Corti. Description: BrdU labelling of cell proliferation in organ of Corti explants. The data set is classed as cell-based, rat. How it is done: Immunohistochemistry, immunocytochemistry and confocal microscopy were carried out as previously described (4;5). Whole-mount preparations or cryostat sections (10-20 :m) were fixed with either 4% paraformaldehyde (10 min. at 20° C.) or methanol (5 min. at −20° C.). Primary antibodies incubations were performed overnight at 4° C. Preparations were washed three times in PBS before incubating with a secondary antibody conjugated to alexa488, alexa568 or TRITC fluorophore for 1 hour at 20° C. Sequential double labeling experiments were done with a 4% paraformaldehyde fixation step in between each immunoreaction. Preparations were mounted on microscope slides and coverslipped with Fluoprep mounting medium (BioMérieux, Marcy l'Etoile, France) and imaged using a Bio-Rad MRC1024 laser scanning confocal microscope. To label cells in S phase in vitro, BrdU (10 :M, Sigma, USA) which is incorporated into replicating DNA, was added to the cultures for 2 or 5DIV prior staining.

The subject of data set [6] is mouse organs of Corti (Math1 genotypes). The data set can be described thus: Roscovitine-induced HCs in organs of Corti of wild type, Math1-null and heterozygote mice. The data set is classed as cell-based. The note with it: 5DIV. How it is done:
Math1 knockout mice were generated by replacing the Math1 open reading frame (ORF) with the selectable marker PGKhprt as previously described by Ben-Arie et al.(l). Math1^∃^gal/^∃^-gal knock-in mice were generated by replacing the Math1 ORF with a ∃-galactosidase (∃-gal) reporter gene so that ∃-gal is expressed in all cells that express Math1 (2).
Whole-mount lacZ staining was carried out on cultured E15.5 organ of Corti explants as previously described (2;3). After 5DIV, explants were fixed in 4% paraformaldehyde for 20 minutes, washed thoroughly in PBS and equilibrate in X-gal staining buffer (5 mM potassium ferricyanide, 5 mM potassium ferrocyanide, 0.02% NP40, and 0.01% sodium deoxycholate). Explants were stained overnight in X-gal buffer with X-gal (1 mg/ml) then post-fixed in 4% paraformaldehyde. Genotyping of tail DNA was performed using Southern analysis of EcoRI digested DNA and probes as previously described (1).

`CC(C)[C@H](CO)Nc1nc(N(C)c2cc(N)cc(Cl)c2)c2ncn(C(C)C)c2n1` [6-methyl-aminopurvalanol, N6-methyl-aminopurvalanol]: in data set [1], the “Induction of supernumerary HCs (in words)” value (“Induction … (in words)” for short) is given as “no effect” and the “Concentration inducing maximum supernumerary HCs differentiation” value was “no effect”.
`Cc1c2oc3c(C)ccc(C(=O)N[C@@H]4C(=O)N[C@H](C(C)C)C(=O)N5CCC[C@H]5C(=O)N(C)CC(=O)N(C)[C@@H](C(C)C)C(=O)O[C@@H]4C)c3nc-2c(C(=O)N[C@@H]2C(=O)N[C@H](C(C)C)C(=O)N3CCC[C@H]3C(=O)N(C)CC(=O)N(C)[C@@H](C(C)C)C(=O)O[C@@H]2C)c(N)c1=O` [Actinomycin D, actinomycin D] (I: T[dV]P[Sar][NMeV] / II: T[dV]P[Sar][NMeV]; ester I:1-I:C, II:1-II:C; linker I:N-II:N via Actinocin(9to1)): in data set [1], the “Induction … (in words)” value is on record as “able to induce supernumerary HCs” and the “Concentration inducing maximum supernumerary HCs differentiation” value was 0.0001 :M.
For `OC[C@H]1O[C@@H](n2cnc3cc(Cl)c(Cl)cc32)[C@H](O)[C@@H]1O` [DRB, 6-dichloro-1-beta-D-ribobenzimidazole], in that order: “able to induce supernumerary HCs” and 0.01 :M.
For the compound `N#CC(=C(/N)Sc1ccccc1N)/C(C#N)=C(\N)Sc1ccccc1N` [U0126], in data set [2], the “CDK1 inhibition (IC50)” value is recorded as “no effect”. For the same compound, in data set [1], the “Induction … (in words)” value is “did not induce supernumerary HCs” and the “Concentration inducing maximum supernumerary HCs differentiation” value is given as “no effect”.
On to `O=C1Cc2c([nH]c3ccc([N+](=O)[O-])cc23)-c2ccccc2N1` [alsterpaullone], for which, in data set [1], the “Induction … (in words)” value was “induced the appearance of supernumerary HCs” and the “Concentration inducing maximum supernumerary HCs differentiation” value is on record as 5 :M.
As for `CC(C)[C@H](CO)Nc1nc(Nc2cc(N)cc(Cl)c2)c2ncn(C(C)C)c2n1` [aminopurvalanol], the “Concentration inducing maximum supernumerary HCs differentiation” value in data set [1] was 5 :M.
Regarding `O=C1c2ccccc2-[n+]2ccc3c([nH]c4ccccc43)c21` [fascaplysin], the “CDK1 inhibition (IC50)” value in data set [2] was “no effect”. Also, in data set [1], the “Induction … (in words)” value was “no effect” and the “Concentration inducing maximum supernumerary HCs differentiation” value was “no effect”.
Turning to `Cn1cnc2nc(NCCO)nc(NCc3ccccc3)c21` [iso-olomoucine], in data set [1], the “Induction … (in words)” value was “no effect” and the “Concentration inducing maximum supernumerary HCs differentiation” value is listed as “no effect”.
For `Cn1cnc2c(NCc3ccccc3)nc(NCCO)nc21` [olomoucine], the “Concentration inducing maximum supernumerary HCs differentiation” value in data set [1] is 30 :M.
`CC[C@H](CO)Nc1nc(NCc2ccccc2)c2ncn(C(C)C)c2n1` [roscovitine]: the TUNEL positive nuclei result in data set [3] was “no TUNEL positive nuclei were identified”. Besides, in data set [4], the “Clinical effect in patients suffering of deafness” value is recorded as “An improvement of their troubles was observed” and the “Tolerability in patients suffering of deafness” value is given as “without any drawbacks”. Besides, in data set [5] (E19 explants, BrdU), the “Rate of proliferation of mesenchymal cells in connective tissue” value is given as “higher in the absence of roscovitine”. Also, the “BrdU labelling of epithelial cells in the area of HCs and SCs” value in data set [5] (roscovitine-treated E19 explants, 10 :M BrdU, 2 or 5 DIV) was “No epithelial cells were labeled with BrdU”. Further, the “Developmental stage dependence of induction of supernumerary HCs” value in data set [1] (10 :M, 5 days of culture, stages E17 to P4) was “culminated at E17, sightly decreased at E19 and disappeared at P0”. Besides, the “Toxicity for cells in the organ of Corti” value in data set [1] (30 and 100 :M) is given as “toxic for all cells in the organ of Corti”. In addition, the “Time in culture for maximal effect on length of supernumerary zones” value in data set [1] (E19 rat explants, 10 :M) was 5 DIV. Moreover, the “Supernumerary segments as percent of the total length of the explants” value in data set [1] (E19 rat explants, 10 :M, 5DIV, mean, S.D., n=4 independent experiments) is recorded as 52.9%. Also, in data set [1] (E19 rat explants, 10 :M, significant effect), the “Time in culture for effect on length of supernumerary zones” value is listed as 4 DIV. In data set [1], the “Induction … (in words)” value is “higher number of supernumerary HCs and corresponding SCs”; the “Concentration inducing maximum supernumerary HCs differentiation” value is given as 10 :M. For the same compound, the “Density of HCs per surface unit vs control explants” value in data set [1] (roscovitine-treated explants) is listed as “remained identical to that of control explants”. The “Myosin VIIA positive supernumerary HCs, wild type mice” value in data set [6] (E15 or E18 wild type mice) is “myosin VIIA immunopositive supernumerary HCs, (FIG. 9A) were observed”. Moreover, in data set [6] (E15.5 Math1 +/beta-gal organs of Corti, 10 :M), the “Supernumerary HCs, Math1 heterozygote mice” value is given as “supernumerary HCs were present”. In addition, in data set [6] (E15.5 Math1-null cochlea), the “Myosin VIIA staining, Math1-null mutant mice” value is “absent”.
For indirubin-3′-monoxime, in data set [1], the “Induction … (in words)” value was “induced the appearance of supernumerary HCs” and the “Concentration inducing maximum supernumerary HCs differentiation” value is listed as 10 :M.
